Experimental findings from patent US5246957A, “N-imidazolyl derivatives of substituted indole” (Farmitalia Carlo Erba S.r.l., priority 1991, dated 1993) are described below.

SMILES strings stand for the structures. Read-outs that look alike come from different tables or passages of the source.

One experiment deals with TxB2 synthesis. Nature of the experiment: TxB2 Synthesis Inhibition in vitro, in whole blood of normal rats. Format: cell-based, Sprague Dawley rats. Particulars: Rattus norvegicus, read-out: In vitro effect on TxB2 synthesis in normal rats, IC50 (whole blood). Here is the method:
(§1) The effects of a representative group of compounds of the invention were evaluated, in comparison with known compounds, on TxB2 synthesis inhibition in vitro, in whole blood of normal rats, and on TxA2 antagonism in a binding assay in washed human platelets.
TxB2 Synthesis Inhibition
Blood was withdrawn from the abdominal aorta of normal Sprague Dawley rats (Charles River Italy) under light ether anaestesia. The blood was immediately divided in portions of 0.5 ml and distributed in glass tubes each containing a concentration of the test compound, or of the reference compounds.
Samples were then allowed to clot for 1 hour at 37° C., centrifuged at 3000 rpm for 10 min, and serum collected and stored at -20° C. until assayed.

Another experiment addresses T1, TxA2 receptor (Homo sapiens, UniProt P21731).
T1 construct: endogenous in cells; host or cells: washed platelets from blood of healthy human volunteers
T1 sequence (P21731 1-343): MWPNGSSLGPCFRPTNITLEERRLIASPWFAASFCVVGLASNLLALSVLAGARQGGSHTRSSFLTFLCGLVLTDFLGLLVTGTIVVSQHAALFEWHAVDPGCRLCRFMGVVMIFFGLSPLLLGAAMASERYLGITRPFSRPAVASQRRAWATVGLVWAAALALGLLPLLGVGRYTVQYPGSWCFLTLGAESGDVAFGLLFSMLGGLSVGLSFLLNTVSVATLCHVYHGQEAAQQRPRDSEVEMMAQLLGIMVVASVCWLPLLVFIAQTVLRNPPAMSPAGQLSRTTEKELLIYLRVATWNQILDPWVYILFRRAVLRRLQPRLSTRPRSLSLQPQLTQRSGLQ
The experiment in a line: Displacement of [^3 H]-SQ 29,548 Binding to Washed Human Platelets. Particulars: for affinity for the receptor compared with reference standards: versus BM 13505 and BM 13177; for IC50: washed human platelets, [^3 H]-SQ 29,548 5 nM, 30 min at 25° C., pH 7.4, n = 3, read-out: ^3 H SQ 29548 binding displacement (washed human platelet) IC50. The method, then:
as §1
Displacement of [^3 H]-SQ 29,548 Binding to Washed Human Platelets
Blood from healthy volunteers of both sexes who had not taken any medication for at least 10 days was collected into one-tenth volume of acid citrate dextrose containing indomethacin (28 μM). Platelet rich plasma (PRP), obtained by centrifugation of the blood at 200× g for 20 min, was washed twice (1000× g for 10 min). The platelets were then resuspended in Tyrode-Hepes buffer (pH 7.4) to a final concentration of […] and incubated for 0-60 min at 25° with [^3 H]-SQ 29,548 (5 nM). For displacement experiments various concentrations (10^-9 -10^-4 M) of competing ligands were added and incubated for 30 min at 25° C. […] After the incubation, 4 ml of ice-cold TRIS-HCl buffer ( 10 mM, pH 7.4) was added to each tube and the reaction mixture was immediately filtered by suction through a Whatman GF/C glass filter disc which was washed 2 times with ice-cold TRIS-HCl (4 ml) and counted for radioactivity by a Packard β-counter.
The binding data were analysed by computerized non-linear curve fitting using the Ligand program and expressed as IC50.

[1] abbreviates: whole blood of normal rats, clotted 1 hour at 37° C., TxB2 by RIA.

For the molecule `CC(=O)Oc1ccccc1C(=O)O` [ASA, acetylsalicilic acid], the IC50 with TxB2 synthesis (1 h) was determined as 31000 nM.

With `O=C(O)c1ccc(OCCn2ccnc2)cc1` [Dazoxiben, dazoxiben], in the experiment with TxB2 synthesis (setting [1]), the IC50 is 1200 nM. On to `Cc1c(CCC(=O)O)n(Cc2ccc(-n3ccnc3)cc2)c2ccc(F)cc12` [FCE 27005, 5-Fluoro-1-[[4-(1H-imidazol-1-yl)phenyl]methyl]-3-methyl-1H-indole-2-propanoic acid], for which, on TxA2 receptor, the “affinity for the receptor compared with reference standards” value was “affinity for the receptor greater than those of compounds BM 13505 and BM 13177”; the 50% inhibitory concentration (IC50) was 32.9 nM. As to `Cc1c(CCCC(=O)O)n(Cc2ccc(-n3ccnc3)cc2)c2ccc(F)cc12` [FCE 27093, 5-Fluoro-1-[[4-(1H-imidazol-1-yl)phenyl]methyl]-3-methyl-1H-indole-2-butanoic acid], the “affinity for the receptor compared with reference standards” value on TxA2 receptor was “affinity for the receptor greater than those of compounds BM 13505 and BM 13177”. For the same molecule, the half-inhibitory concentration (IC50) on TxA2 receptor amounted to 11.9 nM; with TxB2 synthesis (setting [1]) it was 1190 nM.
